Experimental data reported in patent publication US11117888B2, “Irreversible inhibitors of pyruvate kinase M2 and the use thereof” (China Medical University, priority 2020, dated 2021).

Columns and labels:
PC-9 lung cancer cells = assay: MTT cell viability assay, PC-9; format: cell-based; details: Homo sapiens, PC-9 (mutant EGFR), 24 hours
Source text: (§1) Cell lines, cell culture, biochemical reagents, and antibodies. MiaPaCa-2, AsPC-1, and Panc-1 human pancreatic cancer cells, MCF-7 and MDA-MB-231 breast cancer cells, SCC4 and SCC2059 oral cancer cells, PC-3 and LNCaP prostate cancer cells, H157, H460, H1975, PC-9 and H1650 lung cancer cells were obtained from the American Type Culture Collection (ATCC, Manassas, Va.). All these cells were maintained in recommended growth medium (RPMI 1640 or DMEM) supplemented with 10% fetal bovine serum (FBS) (Invitrogen, Carlsbad, Calif., USA) and antibiotics at 37° C. in a humidified incubator containing 5% CO2. For SILAC experiments, PC-9 cells were grown in SILAC DMEM medium (Thermo Fisher) supplemented with 10% dialyzed FBS and 100 μg/mL each of unlabeled L-arginine and L-lysine (light medium) or ^13C/^15N stable isotope-labeled L-arginine and L-lysine (heavy medium). […]
(§2) Cell viability assays. Drug effects on cell viability was assessed by 3-(4,5-dimethylthiazol-2-yl)-2,5-diphenyltetrazolium bromide ([…]) assays. […] The medium was then removed from each well and replaced with DMSO to dissolve the reduced MTT dye for subsequent colorimetric measurement of absorbance at 560 nm. Cell viabilities are expressed as percentages of viable cells relative to the corresponding vehicle-treated control group.

recombinant PKM1 = molecular target: T1, recombinant PKM1 (Homo sapiens, UniProt P14618); assay: Recombinant PKM1 kinase activity assay; format: biochemical; details: after 20 min of exposure
T1 construct: purchased Sigma-Aldrich SRP0415
Description: (§3) As this cell-based kinase assay could not rule out the involvement of PKM1, we examined the abilities of compound 1 to inhibit the kinase activity of recombinant PKM2 (SAE0021, Sigma-Aldrich) versus recombinant PKM1 (SRP0415, Sigma-Aldrich) using a commercial PKM assay kit. […] In brief, PC-9 cells were exposed to different concentrations of compound 2 in the presence of compound 1 (1 μM) for 1 hour, lysed, and the cell lysates were treated with biotin-azide, followed by streptavidin bead pulldown under the aforementioned conditions. […] The antigen of compound 1 was prepared by coupling this small molecule with cysteine residues of ovalbumin, which was then used for immunization in guinea pigs.
(§4) Pyruvate kinase activity assays. PC-9 cells were seeded into 6 cm dishes at a concentration of 5×10^5 cells/mL. After 24 hours, cells were treated with 0.25 μM compound 1 or DMSO for 6 hours. The pyruvate kinase activity of compound 1-treated PC-9 and vehicle control cells was measured by using a commercial colorimetric assay kit from BioVision (Milpitas, Calif., USA) according to the manufacturer's protocol. In addition, to verify the specificity of compound 1 toward PKM2 versus PKM1, the inhibition of the kinase activity of recombinant PKM1 (SRP0415, Sigma-Aldrich) and recombinant PKM2 (SAE0021, Sigma-Aldrich) by compound 1 was conducted using the aforementioned assay kit.

PKM2 [1] = molecular target: T2, PKM2 (Homo sapiens, UniProt P14618); assay: Recombinant PKM2 kinase activity assay; format: biochemical; parameters: purchased Sigma-Aldrich SAE0021; details: after 20 min of exposure
Description: as §3, §4

PKM2 [2] = molecular target: T2, PKM2; assay: Gel-based ABPP competition for PKM2 binding in PC-9 cells; parameters: PC-9 cells were pre-incubated with 1 μM compound 1 for 1 hour, and treated with compound 2; endogenous in cells; host or cells: PC-9 cells; details: 1 μM compound 1, 1 hour, Western blot
Description: as §3
Gel-based ABPP. PC-9 cells (2×10^6) were seeded in DMEM growth medium in 10-cm plates. After overnight incubation, the growth medium was replaced with fresh medium, followed by the addition of 1 μM compound 1 or DMSO control. After 1 hour, the ABPP probe compound 2 at 0.5, 1 and 2 μM was then added, and incubated at 37° C. for an additional 1 hour. The cell lysates were subjected to copper-catalyzed Click reaction, and biotin-tagged proteins were treated with 50 μL of streptavidin-coupled magnetic beads for 16 hours at 4° C. After incubation, cell lysates were washed by PBS containing 0.5% SDS three times to remove nonspecific binding. […]

[3] = test system: PKM2, EGFR, Stat3, β-catenin in PC-9 cells; assay: Immunoblot analysis of oncogenic effectors in PC-9 cells; format: cell-based, human; details: Western blot, 24 hours
Description: Immunoblot analysis. PC-9 cells were seeded into 6 cm dish at a concentration of 5×10^5 cells/mL. After 24 hours, cells were treated with 0-1 μM compound 1 or DMSO alone for 24 hours. The cells were harvested at 24 hours, and protein extractions were carried out. The protein lysate was subjected to 10% SDS-PAGE and transferred to a nitrocellulose membrane (GE Healthcare Life Sciences). Protein expression was analyzed by Western blotting using primary antibodies against PKM2, EGFR, p-STAT3, STAT3, p-β-catenin (Cell Signaling Technology), β-catenin (Santa Cruz Biotechnology) and β-actin (Sigma-Aldrich), followed by incubation with horseradish peroxidase-conjugated secondary (Jackson ImmunoResearch Laboratories). Specific proteins were detected by chemiluminescence using ECL Plus Western Blotting Detection Reagents (GE Healthcare Biosciences).

[4] = test system: MCF-7 breast cancer cells; assay: MTT cell viability assay, MCF-7; format: cell-based; details: Homo sapiens, MCF7; MCF-7, MTT, 24 hours
Source text: as §1, §2

T2 sequence (P14618 whole entry): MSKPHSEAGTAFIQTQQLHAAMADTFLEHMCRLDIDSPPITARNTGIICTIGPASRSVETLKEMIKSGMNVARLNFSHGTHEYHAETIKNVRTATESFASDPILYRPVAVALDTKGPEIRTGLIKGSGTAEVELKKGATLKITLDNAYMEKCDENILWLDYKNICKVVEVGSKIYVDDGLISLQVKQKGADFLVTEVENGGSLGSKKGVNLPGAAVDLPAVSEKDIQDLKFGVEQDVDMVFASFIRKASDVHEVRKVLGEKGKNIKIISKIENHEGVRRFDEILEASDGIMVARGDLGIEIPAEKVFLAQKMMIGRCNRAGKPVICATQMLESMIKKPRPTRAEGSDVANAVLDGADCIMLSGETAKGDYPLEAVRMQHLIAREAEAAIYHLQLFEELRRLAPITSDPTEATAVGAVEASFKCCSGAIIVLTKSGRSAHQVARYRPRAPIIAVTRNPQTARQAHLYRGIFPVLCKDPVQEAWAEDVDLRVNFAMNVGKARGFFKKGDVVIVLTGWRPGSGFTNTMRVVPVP
T1 sequence (P14618 1-531 isoform P14618-2): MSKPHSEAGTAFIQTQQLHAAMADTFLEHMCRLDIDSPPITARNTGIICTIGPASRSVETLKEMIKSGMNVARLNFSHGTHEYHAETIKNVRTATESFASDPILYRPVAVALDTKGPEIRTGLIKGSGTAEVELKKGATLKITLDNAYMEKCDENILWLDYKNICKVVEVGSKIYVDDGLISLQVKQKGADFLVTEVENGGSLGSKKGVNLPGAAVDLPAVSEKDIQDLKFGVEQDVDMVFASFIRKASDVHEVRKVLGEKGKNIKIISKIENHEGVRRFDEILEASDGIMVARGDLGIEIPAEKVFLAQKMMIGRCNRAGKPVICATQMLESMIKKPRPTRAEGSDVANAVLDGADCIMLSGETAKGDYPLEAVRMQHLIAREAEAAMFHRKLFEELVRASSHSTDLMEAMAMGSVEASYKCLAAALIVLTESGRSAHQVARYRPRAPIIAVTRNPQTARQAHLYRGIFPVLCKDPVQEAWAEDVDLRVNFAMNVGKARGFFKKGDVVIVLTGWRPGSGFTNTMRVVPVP

IC50 (PC-9 lung cancer cells): 500 nM
inhibition of kinase activity of recombinant PKM1 (recombinant PKM1): no appreciable inhibition
inhibition of kinase activity of recombinant PKM2 (PKM2 [1]): suppress the kinase activity of PKM2
IC50 [4]: 1000 nM
Structure (SMILES): C#CC(=O)Nc1ccc(-n2nc(CCC(=O)NC)cc2-c2ccc(-c3ccc(C(F)(F)F)cc3)cc2)cc1 [compound 1, N-(4-(3-(3-(Methylamino)-3-oxopropyl)-5-(4′-(trifluoromethyl)-[1,1′-biphenyl]-4-yl)-1H-pyrazol-1-yl)phenyl)propiolamide]
competition with ABPP probe compound 2 for PKM2 binding (PKM2 [2]): binding of the ABPP probe to PKM2 was attenuated
expression and/or phosphorylation of PKM2, EGFR, Stat3, β-catenin [3]: downregulated the expression of PKM2 and EGFR, accompanied by parallel decreases in the phosphorylation and expression of Stat3 and β-catenin
